Experimental data as given in patent US20060063789A1, “Aminobenzamide derivatives as glycogen synthase kinase 3 beta inhibitors” (priority 2001, published 2006).

Assays:
[1] = molecular target: GSK3β (Homo sapiens, UniProt P49841); assay: GSK3beta assay (SPA, biotinylated phosphorylated CREB peptide, ATP-P33); format: biochemical; conditions: −log IC50 (M); 19 nM GSK3β, 5 μM biotinylated phosphorylated CREB peptide, 1 μM ATP, 25° C., one hour
Procedure: GSK3beta assays were performed at 25° C. in a 100 μl reaction volume of 25 mM Tris (pH 7.4) containing 10 mM MgCl2, 1 mM DTT, 0.1 mg/ml BSA, 5% glycerol and containing 19 nM GSK3β, 5 μM biotinylated phosphorylated CREB peptide, 1 μM ATP, 2 nM ATP-P^33 and a suitable amount of a test compound of formula (I) or (I′). After one hour, the reaction was terminated by adding 70 μl of Stop mix (1 mM ATP, 18 mg/ml streptavidin coated PVT SPA bead pH 11.0). The beads to which the phosphorylated CREB peptide is attached were allowed to settle for 30 minutes and the radioactivity of the beads was counted in a microtiterplate scintillation counter and compared with the results obtained in a control experiment (without the presence of a test compound) in order to determine the percentage of GSK3β inhibition. The IC50 value, i.e. the concentration (M) of the test compound at which 50 % of GSK3β is inhibited, was calculated from the dose response curve obtained by performing the above-described GSK3β assay in the presence of different amounts of the test compound.
Table 4 lists pIC50 values (−log IC50 (M)) obtained in the above-described test for the present compounds.

Sequence of GSK3β (P49841 whole entry, species assumed): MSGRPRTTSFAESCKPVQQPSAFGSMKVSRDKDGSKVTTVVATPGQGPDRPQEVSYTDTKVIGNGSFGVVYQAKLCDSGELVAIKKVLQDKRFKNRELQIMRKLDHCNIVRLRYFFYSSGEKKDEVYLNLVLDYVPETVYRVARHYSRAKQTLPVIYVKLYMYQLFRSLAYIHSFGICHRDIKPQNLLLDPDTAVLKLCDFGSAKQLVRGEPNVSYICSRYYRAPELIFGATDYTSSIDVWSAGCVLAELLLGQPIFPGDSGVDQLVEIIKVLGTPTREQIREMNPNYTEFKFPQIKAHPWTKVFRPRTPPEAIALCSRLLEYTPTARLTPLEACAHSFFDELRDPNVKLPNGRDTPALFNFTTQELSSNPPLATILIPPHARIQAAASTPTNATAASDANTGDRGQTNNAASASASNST

IC50 [1] [M]	melting point [°C]	SMILES
1.41e-06	–	NC(=O)c1cccc(Nc2nccc(OCc3ccccc3)n2)c1 [Compound 17]
1.82e-08	260 to 261	N#Cc1cnc(Nc2cccc(C(N)=O)c2)nc1OCc1ccccc1 [Compound 9, 3-[[5-cyano-4-(phenylmethoxy)-2-pyrimidinyl]amino]-benzamide]
1.82e-07	–	NC(=O)c1cccc(Nc2ncc([N+](=O)[O-])c(NCc3ccccc3)n2)c1 [Compound 1]

The remaining lines, values behind:

SMILES	IC50 [1] [M]	melting point [°C]
NC(=O)c1cccc(Nc2ncc(Br)c(OCc3ccccc3)n2)c1 [Compound 4]	5.25e-08	216 to 217
NC(=O)c1ccc(Nc2ncc(Br)c(OCc3ccccc3)n2)cc1 [Compound 22, 4-[[5-bromo-4-(phenylmethoxy)-2-pyrimidinyl]amino]-benzamide]	6.46e-08	–
N#Cc1cnc(Nc2ccc(C(N)=O)cc2)nc1OCc1ccccc1 [Compound 23, 4-[[5-cyano-4-(phenylmethoxy)-2-pyrimidinyl]amino]-benzamide]	2.19e-08	–
